Source: US8455196B2, “Biomarker for identifying subgroup of early-stage lung adenocarcinoma patients” (priority 2011, dated 2013)

How the values were obtained:
[1] = test system: phospho-H2AX (γ-H2AX); experiment: Immunoblot of cisplatin-induced H2AX phosphorylation; format: cell-based, human; conditions: cisplatin 35 μM; for cisplatin-induced γ-H2AX after TOPK shRNA: A549-Luc cells stably transfected with shRNA
Source text: Cells were harvested for detecting the expression of phospho-H2AX (γ-H2AX), H2AX and TOPK by immunoblotting.
Platinum-based combination chemotherapy (i.e. cisplatin) is recognized as the first-line standard of care in NSCLC. […]

[2] = test system: pAKT; experiment: Immunoblot of EGF-induced AKT phosphorylation in A549-Luc cells; format: cell-based, human; conditions: A549-Luc stably transfected with shRNA; serum deprived 24 hrs; EGF 20 ng/ml, 0-30 min
Experimental: FIG. 15 provides the results of knockdown of TOPK decreasing EGF-induced AKT phosphorylation in A549-Luc cells. shNC, shTOPK-3 (SEQ ID NO: 3), and shTOPK-4 (SEQ ID NO: 4) stably transfected A549-Luc cells were serum deprived for 24 hrs. EGF (20 ng/ml) was added to stimulate cells for 0˜30 min as indicated. Then, cells were harvested for detecting the expression of pAKT, AKT and TOPK by immunoblotting.
(§1) Different lung cancer cell lines have been previously analyzed for the expression level of TOPK (data not shown). […] Recently, we have tested the knockdown effect of TOPK in promoting cisplatin-induced cytotoxicity in other lung cancer cells, such as CL152 and CL141 cells.

[3] = test system: CL1-0 cells; experiment: Transwell migration of TOPK-overexpressing CL1-0 cells with pharmacological inhibitors; format: cell-based, human; conditions: CL1-0 cells transfected with pCMV2-Flag-TOPK; inhibitor 10 μM, 2 hrs
Experimental: All cell culture related reagents were purchased from Invitrogen. […] All cells were cultured in appropriate medium, e.g., RPMI 1640 for A549, CL1-0 and CL1-5; DMEM for IMR90, H1299 and H23. Each medium were supplemented with 10% fetal bovine serum, 2 mM of L-glutamine and 1% penicillin/streptomycin. Transfection of cells was done using lipofetamine (Invitrogen) according to the manufacturer's instructions. […] At 24 or 48 hr post-transfection, cells were harvested and subjected to a migration or proliferation assay and the protein level of TOPK was determined by western blotting as described previously (Chen et al 2009a). Pharmacological inhibitors used (LY294002, U0126, and SB203580) were from Cell Signaling.

[4] = test system: PTEN; experiment: Immunoblot of PTEN in TOPK-transfected CL1-0 cells treated with inhibitor; format: cell-based, human; conditions: LY294002 10 μM
Experimental: CL1-0 (C, left), H1299 (C, right), and IMR90 (D) cells were transiently transfected with a vector control or pCMV2-Flag-TOPK (WT) or pCMV2-Flag-TOPK (KD) plasmid; twenty-two hours after transfection, a fraction of the cells was harvested for immunoblotting as indicated in (B); the migration and cell viability of TOPK-overexpressing IMR90 cells was also evaluated as described previously (D, right panel) (*P<0.05, **P<0.01, ***P<0.001);
To determine whether TOPK mediated AKT-dependent cell mortility by regulating the PTEN protein level, we first examined whether co-treating cells with LY294002, a PI3K inhibitor, could affect the TOPK-induced decrease in PTEN. […] Moreover, when PTEN was ectopically expressed, TOPK-induced phosphorylation of AKT-Ser^473 was blocked in a dose-dependent manner (FIG. 5A).

[5] = human, in vivo; cited from earlier work
[6] = test system: CL152 cells; experiment: MTT cell viability after cisplatin in siRNA-transfected CL152 cells; format: cell-based; conditions: cisplatin 35 μM, 48 hr
Experimental: After 48 hr, MTT assays were performed to examine the cell viability (n=3, ** P<0.01).
as §1

Molecule | cisplatin-induced γ-H2AX after TOPK shRNA [1] | EGF-induced AKT phosphorylation [2] | increase in cell migration stimulated by ectopic expression of TOPK [3] | also measured
shTOPK-3: shRNA having a sequence as set forth in SEQ ID NO:3 (TGACCCTGAGGCTTGTTACAT; shRNA, further chemistry not given here) | significantly decreasing | decreasing | – | –
N#CC(=C(/N)Sc1ccccc1N)/C(C#N)=C(\N)Sc1ccccc1N [U0126] | – | – | inhibited to a smaller extent | –
O=c1cc(N2CCOCC2)oc2c(-c3ccccc3)cccc12 [LY294002] | – | – | – | TOPK-induced reduction of PTEN [4]: no effect
shTOPK-4: shRNA having a sequence as set forth in SEQ ID NO:4 (TGTGGGAAATGATGACTTTAT; shRNA, further chemistry not given here) | significantly decreasing | decreasing | – | –
N.N.[Cl][Pt][Cl] [cisplatin] | – | – | – | concentration found in the serum of cisplatin-treated patients [5]: 35 µM; time of peak of cisplatin-induced γ-H2AX ([1]; A549 control cells): 12 h; cell death induced by cisplatin [6]: ~90%
C[S+]([O-])c1ccc(-c2nc(-c3ccncc3)c(-c3ccc(F)cc3)[nH]2)cc1 (stereo not shown) [SB203580] | – | – | inhibited to a smaller extent | –
